The values that follow come from patent publication US10517926B2, “Oligopeptide having proinflammatory cytokine secretion-inhibiting activity” (Osaka University, priority 2015, dated 2019).

Assay [1] concerns MG6 cells. Nature of the assay: Proinflammatory cytokine secretion inhibition, LPS-stimulated microglial cells (ELISA). Format: cell-based, mouse. The note with it: MG6 cells, peptide 50 or 100 μg/ml, LPS 2 ng/ml, 24 hours. As for the experimental part:
MG6 cells (mouse-derived microglial cell line) were cultured in a DMEM medium (+4% FBS) containing MHP1 or MHP2 (final concentration: 50 or 100 μg/ml), and LPS (final concentration: 2 ng/ml) for 24 hours by a standard method. After culture, the concentrations of IL-6 and TNFα in the medium were measured by the ELISA method. In the Examples of the present application, the ELISA method was performed using a kit (Quantikine ELISA Mouse TNF-α or Quantikine ELISA Mouse IL-6, produced by R&D Systems). The results are shown in FIG. 1 (IL-6) and FIG. 2 (TNFα).
The proinflammatory cytokine secretion-inhibiting effect was examined in the same as in Example 2, except that the final concentration of MHP1 was set to 100 μg/ml, and that RANKL full-length protein was used at a final concentration of 10 ng/ml or 100 ng/ml as the comparison target.

Assay [2] concerns MG6 cells. Briefly: M1 shift of microglial cells by LPS (FACS). Format: cell-based, mouse. Conditions: MHP1 100 μg/ml, LPS 2 ng/ml, 24 hours; FIG. 8. As for the experimental part: MG6 cells (mouse-derived microglial cell line) were cultured in a DMEM medium (+4% FBS) containing MHP1 (final concentration: 100 μg/ml) or RANKL protein (Recombinant Murin sRANKL Ligand (Cat No. 315-11): produced by Peprotech) (final concentration: 10 ng/ml), and LPS (final concentration: 2 ng/ml) for 24 hours by a standard method. After culture, the cells were washed with PBS, and Fc receptor blocking was performed using mouse IgG. Thereafter, F4/80-FITC (microglia marker antibody) and CD206-APC (M2 marker antibody) were added, and reacted at 4° C. for 30 minutes in a dark place. After the reaction, the cells were washed with PBS, and the percentage of microglia marker-positive and M2 marker-positive (M2 state) cells, and the percentage of microglia marker-positive and M2 marker-negative (M1 state) cells were measured by FACS analysis (FACSCanto II, produced by BD Biosciences).

The test system of assay [3] is RANK knockdown RAW264.7 cells. Nature of the assay: RANK dependency: cytokine secretion in RANK knockdown cells. Conditions: for secretion of IL-6: FIG. 10; for secretion of TNFα: FIG. 11. Format: cell-based, mouse. The protocol:
RAW264.7 cells were suspended in a DMEM medium (+10% FBS), seeded on a 24-well plate, and cultured at 37° C. at a CO2 concentration of 5%. To 100 μl of serum-free DMEM medium, 37.5 ng (final concentration: 5 nM) of siRNA against RANK (a double strand of the sequence represented by SEQ ID NO: 17 and the sequence represented by SEQ ID NO: 18, produced by GeneDesign) or 37.5 ng (final concentration: 5 nM) of control siRNA (a double strand of the sequence represented by SEQ ID NO: 19 and the sequence represented by SEQ ID NO: 20, produced by GeneDesign), and 3 μl of HiPerFect Transfection Reagent (QIAGEN) were added, and the resultant was allowed to stand at room temperature for 10 minutes. This was added to the RAW264.7 cell culture medium. After culture at 37° C. at a CO^2 concentration of 5% for 24 hours, the cells were collected. A protein extract was obtained from the cells by a standard method, and RANK in this extract was detected at a dilution concentration of 1/100 by the Western blotting method (anti-RANK antibody: anti-mRANK (Cat. No. AF692), produced by R&D Systems). […] FIG. 9 confirmed that RANK was knocked down by siRNA against RANK (comparison between lane 2 and lane 3).
MHP1 and LPS were made to act on RANK knockdown cells, as in Example 3, and the concentrations of IL-6 and TNFα in the medium were measured by the ELISA method. FIGS. 10 and 11 show the results.

Assay [4] concerns NFκB (p65). Nature of the assay: NFκB (p65) activation (TransAM NFkB p65 Kit). Format: cell-based, mouse. The note with it: RAW264.7 cells; MHP1 100 μg/ml, 10 minutes; FIG. 12C. The protocol: It has recently been reported that the administration of RANKL protein to mice induces the activation of osteoclasts. Accordingly, the influence of the RANKL peptide on osteoclasts was examined. The specific examination procedures were as follows. MHP1 (final concentration: 100 μg/ml) or RANKL protein (final concentration: 10 ng/ml) was added to a medium (DMEM medium (+4% FBS)) in which RAW264.7 cells were cultured, and the cells were collected after 10 minutes and 3 days.
For the samples collected after 10 minutes, nuclear proteins of the cells were extracted using the Nuclear Extract Kit (Active Motif), and the degree of NFκB (p65) activation was measured by the TransAM NFkB p65 Kit (Active Motif). On the other hand, for the samples collected after 3 days, the mRNA expression levels of NFATc1 and ACP5 were analyzed by real-time RT-PCR.

Assay [5] concerns osteoclast precursor cells. Briefly: Osteoclast differentiation, Osteoclast Culture Kit (TRAP and nuclear staining). Format: cell-based. The protocol:
Osteoclast Culture Kit V-2 (OSC33, produced by Cosmo Bio Co., Ltd.) was used. According to the manual of the kit, culture of osteoclast precursor cells was started in the presence of M-CSF (final concentration: 50 ng/ml) in the A and B groups, and in the presence of M-CSF (final concentration: 50 ng/ml) and MHP1 (final concentration: 30, 50, or 100 μg/ml) in the C and D groups. Thereafter, 24 hours to 7 days after the start of culture, the A group was cultured in the presence of M-CSF (final concentration: 50 ng/ml), the B group was cultured in the presence of M-CSF (final concentration: 50 ng/ml) and RANKL protein (final concentration: 50 ng/ml), the C group was cultured in the presence of M-CSF (final concentration: 50 ng/ml) and MHP1 (final concentration: 30, 50, or 100 μg/ml), and the D group was cultured in the presence of M-CSF (final concentration: 50 ng/ml), RANKL protein (final concentration: 50 ng/ml), and MHP1 (final concentration: 30, 50, or 100 μg/ml). After culture, the cells were subjected to TRAP staining and nuclear staining according to a standard method.

[6] abbreviates: RANK knockdown cells (siRNA against RANK).
Where [7] appears, read: control siRNA-introduced RAW264.7 cells.

For “LMVYVVKTSIKIPSSHNLMKGGSTKNWSGN (listed as Mus musculus) [MHP1]”, in assay [1] (FIG. 1), the “increase in the amount of IL-6 secretion by LPS” value is “suppressed”. Besides, the “increase in the amount of TNFα secretion by LPS” value in assay [1] (FIG. 2) is recorded as “suppressed”. For the same sequence, the “M1 shift caused by LPS” value in assay [2] is given as “suppressed”. Also, the “secretion of IL-6” value in assay [3] (setting [6]) is on record as “not inhibited”; in assay [3] (setting [7]), “inhibited”. Moreover, the “secretion of TNFα” value is “not inhibited” in assay [3] (setting [6]) and “inhibited” in assay [3] (setting [7]). Moreover, the “NFκB (p65) activation” value in assay [4] is on record as “slightly activated”. For the same sequence, the “differentiation of osteoclasts promoted by RANKL” value in assay [5] (M-CSF 50 ng/ml + RANKL protein 50 ng/ml + MHP1 30, 50 or 100 μg/ml, FIG. 13 (a)) is “inhibited”. Also, the “differentiation of osteoclasts by the substance itself” value in assay [5] (with M-CSF 50 ng/ml, MHP1 30, 50 or 100 μg/ml or RANKL protein 50 ng/ml, FIG. 13) is given as “did not occur”.
